Measured values published in the METLIN SMRT retention time set (Domingo-Almenara et al. 2019).

Test: gradient 5% acetonitrile 3 min, to 50% in 2 min, to 85% in 15 min, held 3 min, 100 µL/min
Details: column: Zorbax Extend-C18 2.1 x 50 mm; eluents: water / acetonitrile, 0.1% formic acid
Method in brief: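 The system's dead and dwell volumes were 40 μL and 900 μL, with a Zorbax Extend-C18 column (2.1 × 50 mm, 1.8 μm) run at 100 μL/min in water and acetonitrile containing 0.1% formic acid each. Pure standards were analyzed in mixtures of ~100 molecules by HPLC–quadrupole time-of-flight mass spectrometry in positive and negative ionization mode. Retention time was assigned from computationally picked, manually inspected adduct peaks.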

| RP-LC retention time [s] | SMILES |
| --- | --- |
| 800 | CCOC(=O)c1c(S(=O)(=O)N2CCC(C(=O)NCc3ccccc3OC)CC2)c(C)n(C)c1C |
| 798 | O=C(Nc1ccc(F)c(Cl)c1)N1CCC(N2CCN(Cc3cccc(F)c3)C(=O)C2=O)CC1 |
| 637 | CSc1cccc(NC(=O)C2CCN(C(=O)c3cc(-c4ccncc4)n[nH]3)CC2)c1 |
| 764 | CCc1ccc(C(C)NC(=O)C2CCN(Cc3cn(C)c4ccccc34)CC2)cc1 (centres undefined) |
| 794 | Cc1[nH]c2ccccc2c1C(=O)C(=O)NC(C)c1ccccc1 (centres undefined) |
| 1090 | Cn1c(C(=O)N2CCN(c3cccc(Cl)c3)CC2)cc2sccc21 |
| 679 | CCn1cc(-c2ccncc2)cc1C(=O)NCc1ccc(Cl)cc1 |
| 961 | COc1cccc(-c2noc(C3CCCN3C(=O)Nc3ccccc3)n2)c1 (centres undefined) |
| 820 | O=C(CSc1ncccn1)N1CCC(Cc2ccccc2)CC1 |
| 1050 | CCOc1ccccc1NC(=O)CN1C(=O)CC(c2cccs2)=Nc2ccccc21 |
| 807 | COc1cccc(N2CCN(C(=O)C3CCN(c4nnc(-c5ccccc5)o4)CC3)CC2)c1 |
| 608 | CC1CCN(CCCNC(=O)c2nnc(-c3ccc(S(=O)(=O)N4CCOCC4)cc3)o2)CC1 |
| 579 | CCOc1ccccc1CNC1CCN(c2ccc(C(=O)NC3CC3)cn2)C1 (centres undefined) |
| 1060 | CC(C)c1ccc(S(=O)(=O)N2C[C@@H](F)C[C@H]2C(=O)N2CCc3ccccc3C2)cc1 |
| 1140 | Cc1ccccc1-c1nc(C2CCN(S(=O)(=O)c3ccccc3)CC2)no1 |
| 813 | Cc1cc(C(=O)NCc2ccc(F)cc2)n(-c2ccccc2)n1 |
| 638 | COc1ccc(-c2c(C(=O)NCc3cccnc3)nn3c(C)cc(C)nc23)cc1S(=O)(=O)N1CCCC1 |
| 665 | Cc1ccc(NC(=O)N2CCC(n3cnnc3C3CC3)C2)cc1C (centres undefined) |
| 650 | CN(C)C(CNC(=O)c1cc(=O)c2cc(Cl)ccc2o1)c1ccccc1 (centres undefined) |
| 972 | Cc1cccc(C(=O)N2CCc3cc(CNS(=O)(=O)Cc4ccccc4)ccc32)c1 |
| 745 | Cc1cc(S(=O)(=O)NCCc2cn(C)c3ncccc23)ccc1F |
| 1120 | CC1CCN(c2nn(CC(=O)Nc3ccc(F)cc3)c(=O)c3ccccc23)CC1 |

| RP-LC retention time [s] | SMILES |
| --- | --- |
| 1350 | CCOC(=O)c1c(C)oc2ncnc(NCCN3CCCc4ccccc43)c12 |
| 704 | CCC(CC)N1CCC(F)(c2nc(-c3ccccc3)no2)CC1 |
| 949 | Cc1cc(-c2nn3c(C4CCCCC4)nnc3s2)c2ccccc2n1 |
| 720 | COc1ccc(S(=O)(=O)N2CCC(c3cc4n(n3)CCCN(C)C4=O)CC2)cc1 |
| 882 | CCOc1ccc(NC(=O)C2CCN(c3c(C(=O)N(CC)CC)cnc4snc(C)c34)CC2)cc1 |
| 733 | CCCNC(=O)C1CCCN(c2ccc(SCC(=O)Nc3cccc(CC)c3)nn2)C1 (centres undefined) |
| 685 | CCN1C(=O)c2cccnc2Sc2cc(NC(=O)C3CC3)ccc21 |
| 875 | Cc1ccc(S(=O)(=O)Cc2noc(CCNS(=O)(=O)c3ccc(C)cc3)n2)cc1 |
| 907 | O=C(Cn1cccc1-c1nnc(C2CCC2)o1)NCc1ccc(Cl)cc1 |
| 1260 | COc1ccc(C(=S)N2CCN(c3ccccc3C)CC2)cc1 |
| 1190 | Cc1ccc(-c2ccc(-n3nc(C)c(S(=O)(=O)N4CCCCC4)c3C)nn2)cc1 |
| 779 | CCN1C(=O)c2c(C(=O)NCCc3ccc(C)cc3)ncn2CC1(C)C(=O)NC1CCCC1 (centres undefined) |
| 856 | Cn1cc(-c2cc3n(n2)CCC(=O)N3CC(=O)NC2CCCCCC2)c2ccccc21 |
| 602 | CCCS(=O)(=O)c1ccc(NC2CCN(Cc3ccccc3)CC2)nn1 |
| 1110 | Cc1cc(C)cc(NC(=O)N2CCCC2c2nc(-c3ccccc3C)no2)c1 (centres undefined) |
| 654 | CCOc1ccc(NC(=O)Cn2c(N3CCOCC3)nc(C)cc2=O)cc1 |
| 703 | COc1ccc(NC(=O)Cn2c(C(C)C)nc3c(c2=O)CCN(Cc2ccccc2)C3)c(OC)c1 |
| 830 | CC(C)C(=O)Oc1ccc(CO)cc1[C@H](CCN(C(C)C)C(C)C)c1ccccc1 |
| 1140 | CCc1ccc(S(=O)(=O)N2CCc3nc(-c4ccc(OC)cc4)ncc3C2)cc1 |
| 597 | O=C1CC(c2nc3ccccc3n2CCN2CCOCC2)CN1Cc1ccccc1 (centres undefined) |
| 900 | COc1ccc(S(=O)(=O)NC2CCN(C(=O)Nc3ccc(F)c(Cl)c3)CC2)cc1 |
| 738 | O=C(Nc1ccccc1F)C1CCN(C(=O)c2ncn3c2COC(c2ccc(F)cc2)C3)CC1 (centres undefined) |

Further lines, the compound ahead of its results:

| SMILES | RP-LC retention time [s] |
| --- | --- |
| CC(C)Cn1nc2c(S(=O)(=O)N3CCOCC3)cccn2c1=O | 707 |
| COc1ccc(C)cc1NC(=O)N1C[C@@H]2C[C@H](NC(=O)c3cccs3)[C@H]1C2 | 827 |
| O=C(NC1CCCCC1)C1CCCN(c2cnc3nccnc3c2)C1 (centres undefined) | 691 |
| CC(C)CNC(=O)/C=C\C(=O)O | 717 |
| Cc1nc2cc(-c3noc(-c4cccc(Br)c4)n3)ccc2n(C)c1=O | 1170 |
| CCCN(CC1CCOC1)C(=O)Nc1ccc2c(c1)OCCO2 (centres undefined) | 732 |
| O=C([C@H]1C[C@@H](F)CN1S(=O)(=O)c1cccc(C(F)(F)F)c1)N1CCOCC1 | 769 |
| O=C(Nc1nc2c(F)cc(F)cc2s1)C1CCCN(S(=O)(=O)c2cccs2)C1 (centres undefined) | 767 |
| Cc1ccc2c(Nc3ccc(C)c(C)c3)c(C(=O)N3CCSCC3)cnc2n1 | 644 |
| Cc1cccc2c1ncn1c(=O)n(CC(=O)Nc3ccc4c(c3)OCCO4)nc21 | 637 |
| O=C1C2N=NN(Cc3nc(-c4ccccc4)no3)C2C(=O)N1c1ccccc1 (centres undefined) | 906 |
| CC(C)NC(=O)C1CCCN(C(=O)Nc2ccc(S(=O)(=O)N3CCCCCC3)s2)C1 (centres undefined) | 827 |
| O=C(NC1CC1)c1c2c(nc3ccc(F)cc13)CCCC2 | 610 |
| CC1=C(c2ccc(Cl)cc2)S(=O)(=O)N=C1N1CCCN(C(=O)C2CCOC2)CC1 (centres undefined) | 733 |
| COc1cccc(-c2nc(Cn3cnc4ccccc4c3=O)no2)c1OC | 802 |
| Cc1ccc(-n2c(C)c(C)c3c(=O)n(CC(=O)N4CCc5ccccc54)cnc32)cc1 | 1040 |
| O=C(Cn1nc2nc(N3CCCC3)ccn2c1=O)NCc1ccc(F)cc1Cl | 688 |
| Cc1cc(=O)n(CC(=O)Nc2cc(F)ccc2C)c(N)n1 | 608 |
| COCc1cn(C2CN(C(=O)c3ccc(C)s3)C2)nn1 | 649 |
| CCOC(=O)c1c(S(=O)(=O)N2CCC(C(=O)NC3CC3)CC2)c(C)n(C)c1C | 672 |
| Cc1ccc(CNC(=O)C2(C)CN(S(C)(=O)=O)CC(=O)N2c2cc(C)cc(C)c2)cc1 (centres undefined) | 860 |
| CCCc1noc(-c2cccn3c(CC(=O)N4CCSCC4)nnc23)n1 | 653 |
| CC1=C(C(=O)Nc2ccc(C(=O)NCCCN3CCN(C4CCCCC4)CC3)cc2)SCCO1 | 576 |

| SMILES | RP-LC retention time [s] |
| --- | --- |
| COc1ccc(-c2nc(-c3ccc4c(c3)ncn4CCC(=O)N3CCCC3)no2)cc1 | 742 |
| COCCn1c(CCCC(=O)NCc2ccc3c(c2)OCO3)nc2cccnc21 | 632 |
| CNC(=O)c1cc2c(cn1)[nH]c1ccccc12 | 706 |
| CN(C)C(=O)c1ccc2c(c1)nnn2CCNC(=O)Nc1ccc(Cl)cc1 | 678 |
| Cn1nccc1C(=O)N1CCN(c2cc(=O)n(C)c(=O)n2C)CC1 | 587 |
| COc1cc(CC(=O)N2CCN(c3cc(C)n4cnnc4n3)CC2)cc(OC)c1 | 607 |
| CN1CCN(C(=O)C(=O)Nc2c3c(nn2-c2cccc(Cl)c2)CSC3)CC1 | 571 |
| CN(C)[C@@H]1CN(C(=O)c2cccc(Br)c2)C[C@H]1CO | 573 |
| O=C(c1cnn2cc(Br)cnc12)N1CCCC1c1cccc(F)c1 (centres undefined) | 904 |
| O=C(NCc1ccccc1Br)c1ccc(-c2cccnc2)nc1 | 697 |
| COc1ccc(CCn2c(-c3cccs3)nc3c(c(=O)c4ccccc4n3C)c2=O)cc1 | 880 |
| CCOc1ccc(-c2nc(-c3cccc(-c4ccnn4C)c3)no2)cc1OCC | 1210 |
| CCC1(O)CCOC2(CCN(Cc3cccc(OC)n3)CC2)C1 (centres undefined) | 602 |
| COc1ccc(N2CCN(c3cc(C(=O)O)c4cc(NC(C)=O)ccc4n3)CC2)cc1 | 599 |
| Cc1ccc(C(=O)N2CCC3(CCC3N3CCOCC3)CC2)s1 (centres undefined) | 597 |
| COc1ccc(C2(c3nc(-c4ccc(CNC(=O)C5CC5)s4)no3)CC2)cc1 | 955 |
| Cc1ccc(NC(=O)C2CCCN(S(=O)(=O)c3cn(C(C)C)cn3)C2)cc1F (centres undefined) | 847 |
| CCOc1cccc(-c2noc(Cn3c(=O)n(-c4ccc(Cl)cc4)c(=O)c4sccc43)n2)c1 | 1130 |
| Cc1ccsc1C(=O)NCCC1CCN(C(=O)Nc2cc(F)cc(F)c2)CC1 | 915 |
| N#Cc1ccc(C(=O)N2CCN(c3cc(-c4cccs4)[nH]n3)CC2)cc1 | 749 |
| Cn1cc(-c2nc(C(=O)NCc3ccc(C(F)(F)F)cc3)cs2)c2cccnc21 | 1040 |
| CN1C(=C=Cc2cc(I)c(O)c(I)c2)C(C)(C)c2ccccc21 | 890 |
